Assay results: patent US20110306641A1, “NOVEL 2,6-SUBSTITUTED-3-NITROPYRIDINE DERIVATIVE, METHOD FOR PREPARING SAME, AND PHARMACEUTICAL PREPARATION INCLUDING SAME” (priority 2008, published 2011)

Tests used:
Calvarial cell [1] = assay: Alkaline phosphatase (ALP) activity in osteoblasts (Calvarial cells); assay type: cell-based, mouse; conditions: 3 days; for activity at 1 µM: Mus musculus, 72 h, read-out: ALP activity (1 μM, % of Control) Calvarial cell
Procedure: (§1) Differentiation and activity of osteoblasts were indirectly evaluated by measuring an ALP activity having a close relationship with osteogenesis.
(§2) Osteoblasts (Calvarial cells) prepared in Experimental Example 1 and MC3T3-E1 cells (available from RIKEN Cell Bank, Japan) were collected in α-MEM supplemented with 10% FBS, followed by cell counting. The cells were dispensed into 24-well cultureware at a density of 2×10^4 cells/well. After culturing of the cells for 24 hours, the culture media were discarded and replaced with fresh media in which test compounds were diluted to a concentration of 1 μM (1 mL/well). In addition, the vehicle control group containing 0.1% DMSO was also treated. Under the conditions where the compounds were treated, the cells were cultured in a 5% CO2 […] at 37° for 3 days. When the experiment was terminated, the supernatant was removed and the cells were washed three times with cold phosphate buffer at 4°. 0.2% Triton X-100 was added to the washed cells which were then subjected to three cycles of freezing at −70° and thawing at room temperature for the complete lysis of cells. The cell extracts were pooled and centrifuged to collect the cell supernatant which was used for the measurement of ALP activity and proteins. The protein concentration was measured using a BCA assay kit (manufactured by Sigma-Aldrich). For the measurement of ALP activity, p-nitrophenylphosphate was added to the cell supernatant which was then incubated at 37° for 30 minutes, and the reaction was terminated with the addition of 50 μL of 0.2N sodium hydroxide. The standard curve was plotted at the absorbance of 405 nm using p-nitrophenol as a standard material and then the absorbance of test materials thus reacted was measured to determine the production amount of p-nitrophenol.
(§3) The ALP activity was calculated by dividing the amount of p-nitrophenol produced from each test material by the protein amount and the reaction time. Therefore, the unit of ALP activity was given in terms of p-nitrophenol/μg protein/min. The results are given in Table 3 where the ALP activity unit of each test material was given in terms of % change through the comparison between the individual test materials and the vehicle control group.

[2] = test system: osteoclastogenesis (formation of multinucleated osteoclasts); assay: Osteoclastogenesis inhibition via co-culture system (bone marrow cells + osteoblasts, TRAP staining); assay type: cell-based, mouse; conditions: 7 days co-culture, vs vehicle control; for inhibition at 1 µM: Mus musculus, Osteoclast, 168 h; for Osteoclastogenesis inhibition (%): 1 μM
Procedure: Osteoclastogenesis inhibitory effects of the compounds of the present invention were evaluated via a co-culture system (Reference: Endocrinology 137(1996), 2187 to 2190, E. Jimi et al.). A specific experimental method is as follows.
1) Preparation of Bone Marrow Cells and Osteoblasts
Femur and tibia were aseptically dissected from 6 to 8-week-old male ddY mice to harvest bone marrow cells by a conventional method using a syringe. In brief, tissues were removed from the dissected bone, the bone ends were cut off with scissors, and the bone marrow was isolated by pushing a medium-containing syringe (23G) against the one end of the cut bone. The isolated bone marrow was subjected to repeated piston movement of a syringe such that single cells were obtained (Reference: Endocrinology 123(1988), 2600 to 2602, Takahashi et al.). After removal of red blood cells within the bone marrow, the bone marrow cells recovered by centrifugation were placed in an α-MEM supplemented with 10% fetal bovine serum (FBS), followed by counting of nucleated cells and then were immediately used for a co-culture system.
For the preparation of osteoblasts (Calvarial cells), the cranial bone were aseptically dissected from 1 to 2-day-old neonatal ICR mice and subjected to continuous reaction with a 0.2% collagenase solution to separate osteoblasts. The cell-suspended supernatant was centrifuged to recover osteoblasts which were grown to full confluence in an α-MEM supplemented with 10% FBS and then diluted to a desired cell density for use in the experiment.
2) Osteoclastogenesis Inhibition Experiment Via Co-Culture System
As the medium used for a co-culture system, a differentiation medium with the addition of differentiation factors 1α,25-dihydroxyvitamin D3 (10^−8M) and dexamethasone (10^−8M) to α-MEM supplemented with 10% FBS was used for the induction of osteoclastogenesis. First, the compounds of the present invention dissolved in dimethyl sulfoxide (DMSO) at a concentration of 1 mM were diluted to 2 μM using the above-mentioned differentiation medium. As a vehicle control group, 0.2% (v/v) DMSO was added to the medium. 100 μL/well of each medium was added to 96-well plates. In addition, the above prepared bone marrow cells and osteoblasts were plated onto 96-well plates at a density of 1×10^5 cells/50 μL/well and 3×10^3 cells/50 μL/well, respectively. The total volume/well was 200 μL and the final compound concentration was 1 μM. The control group was 0.1% (v/v) DMSO. The cells were cultured with exchange of the culture media with fresh media containing differentiation factors and test materials (materials containing the compounds of the present invention) at an interval of 2 to 3 days.
7 days after culturing of cells, the formation of multinucleated osteoclasts was confirmed by microscopic examination, the medium was removed from the wells and then the cells were fixed in a 10% phosphate-buffered formalin solution. The degree of formation of mature osteoclasts was measured taking advantage of the characteristics of osteoclasts showing a positive reaction to a tartrate-resistant acid phosphatase (TRAP) staining solution. The TRAP staining solution was prepared in a manner such that naphthol AS-MS phosphate as a substrate and a coloring agent (Fast Red Violet LB salt) were dissolved in N,N-dimethylformamide, and a 0.1N NaHCO3 buffer solution containing 50 mM of tartaric acid was added thereto. Among the TRAP-positive cells under a light microscope, multinucleated osteoclasts having 6 to 7 nuclei were regarded as mature osteoclasts.
The degree of inhibition of osteoclastogenesis was calculated according to the following equation 1. The results are summarized in Table 2 below (Experiments were carried out for 4 wells/experimental group (n=4), and the results are given in terms of mean±standard deviation) […]

MC3T3-E1 cell = assay: Alkaline phosphatase (ALP) activity in MC3T3-E1 cells; assay type: cell-based; conditions: 3 days; for activity at 1 µM: Mus musculus, 72 h, read-out: ALP activity (1 μM, % of Control) MC3T3-E1 cell
Procedure: as §1, §2, §3

Calvarial cell [3] = assay: Cytotoxicity test (MTT) in osteoblasts (calvarial cells); conditions: 1 μM, 72 hours, vs vehicle control
Procedure: Drugs were diluted to a concentration of 2 μM in α-MEM culture media supplemented with 10% FBS. The vehicle control group was established to contain 0.2% DMSO. 100 μL/well of the diluted drugs were dispensed into 96-well plates to which osteoblasts (calvarial cells) prepared in Experimental Example 1 were then added at a density of 1.0×10^4 cells/100 μL/well. Here, the final compound concentration in the cell culture was 1 μM, and the vehicle control group contained 0.1% DMSO. The cells were cultured in a 5% CO2 inhibitorr at 37° for 72 hours. 25 μL of 3-(4,5-dimethyl-2-thiazolyl)-2,5-diphenyl-2H-tetrazolium bromide (MTT) dissolved in PBS (2 mg/mL) was added to each cell culture 4 hours before the end of culture. After completion of the reaction, the plates were centrifuged, the media were discarded, and 100 μL of formazan was added and dissolved in dimethyl sulfoxide (DMSO). Finally, the absorbance of the developed plates was measured at 540 nm. The cell viability was expressed as % concentration in comparison with the vehicle control group.

Row | Compound | activity at 1 µM (Calvarial cell [1]) [%] | inhibition at 1 µM [2] [%] | activity at 1 µM (MC3T3-E1 cell) [%] | Cell viability (%) Calvarial cell (Calvarial cell [3]) [%] | ALP activity (1 μM, % of Control) Calvarial cell (Calvarial cell [1]) | ALP activity (1 μM, % of Control) MC3T3-E1 cell (MC3T3-E1 cell) | Osteoclastogenesis inhibition (%) [2] [%]
1 | CC(C)CNc1ccc([N+](=O)[O-])c(Nc2ccc3[nH]ncc3c2)n1 [Compound 8, 2-(1H-indazol-5-yl)amino-6-(isobutylamino)-3-nitropyridine] | 157 | 100 | 240 | 96 | – | – | –
2 | O=[N+]([O-])c1ccc(NCCN2CCOCC2)nc1Nc1ccc2[nH]ncc2c1 [Compound 37, 2-(1H-indazol-5-yl)amino-6-[(2-morpholino)ethylamino]-3-nitropyridine] | 126 | – | 141 | 94 | – | – | –
3 | O=[N+]([O-])c1ccc(N2CCNCC2)nc1Nc1ccc2[nH]ncc2c1 [Compound 10, 2-(1H-indazol-5-yl)amino-6-(piperazin-1-yl)-3-nitropyridine] | 189 | 99 | 124 | 95 | – | – | –
4 | CN(C)CCNc1ccc([N+](=O)[O-])c(Nc2ccc3cn[nH]c3c2)n1 [Compound 20, 2-(1H-indazol-6-yl)amino-6-[2-(N,N-dimethylamino)ethylamino]-3-nitropyridine] | 119 | 90 | – | – | – | – | –
5 | 2-(1H-indazol-5-yl)amino-6-(2-methyl-4,5-dihydroimidazol-1-yl)amino-3-nitropyridine [Compound 1] | – | – | – | – | 158 % of Control | 168 % of Control | –
6 | O=[N+]([O-])c1ccc(N2CCC(O)CC2)nc1Nc1ccc2[nH]ncc2c1 [Compound 9, 2-(1H-indazol-5-yl)amino-6-(4-hydroxypiperidino)-3-nitropyridine] | 166 | 100 | 112 | 105 | – | – | –
7 | O=[N+]([O-])c1ccc(NCCc2ccccn2)nc1Nc1ccc2cn[nH]c2c1 [Compound 14, 2-(1H-indazol-6-yl)amino-6-[(2-pyridyl)ethylamino]-3-nitropyridine] | 111 | 98 | 121 | 91 | – | – | –
8 | O=[N+]([O-])c1ccc(N2CCN(CCO)CC2)nc1Nc1ccc2cn[nH]c2c1 [Compound 19, 2-(1H-indazol-6-yl)amino-6-[4-(2-hydroxyethyl)piperazin-1-yl]-3-nitropyridine] | 132 | 90 | – | 100 | – | – | –
9 | CN(CCO)c1ccc([N+](=O)[O-])c(Nc2ccc3[nH]ncc3c2)n1 [Compound 7, 2-(1H-indazol-5-yl)amino-6-[(N-methyl-2-hydroxyethyl)amino]-3-nitropyridine] | – | – | – | 103 | 221 % of Control | 155 % of Control | 72
10 | CN1CCN(Nc2ccc([N+](=O)[O-])c(Nc3ccc4cn[nH]c4c3)n2)CC1 [Compound 23, 2-(1H-indazol-6-yl)amino-6-[(4-methylpiperazin-1-yl)amino]-3-nitropyridine] | 139 | 92 | – | 98 | – | – | –
11 | O=[N+]([O-])c1ccc(NCc2ccccn2)nc1Nc1ccc2cn[nH]c2c1 [Compound 21, 2-(1H-indazol-6-yl)amino-6-[(2-pyridyl)methylamino]-3-nitropyridine] | 115 | – | – | 96 | – | – | –
12 | CC(C)Nc1ccc([N+](=O)[O-])c(Nc2ccc3cn[nH]c3c2)n1 [Compound 33, 2-(1H-indazol-6-yl)amino-6-(isopropylamino)-3-nitropyridine] | 122 | – | – | 97 | – | – | –
13 | O=[N+]([O-])c1ccc(NCc2ccncc2)nc1Nc1ccc2cn[nH]c2c1 [Compound 26, 2-(1H-indazol-6-yl)amino-6-[(4-pyridyl)methylamino]-3-nitropyridine] | 113 | 78 | – | 106 | – | – | –
14 | O=[N+]([O-])c1ccc(NC(CO)CO)nc1Nc1ccc2[nH]ncc2c1 [Compound 35, 2-(1H-indazol-5-yl)amino-6-[(2-hydroxy-1-hydroxymethyl)-ethylamino]-3-nitropyridine] | – | – | – | 104 | – | 123 % of Control | –
15 | CN1CCN(c2ccc([N+](=O)[O-])c(Nc3ccc4[nH]ncc4c3)n2)CC1 [Compound 39, 2-(1H-indazol-5-yl)amino-6-(4-methylpiperazin-1-yl)-3-nitropyridine] | 159 | 80 | – | 97 | – | – | –
16 | O=[N+]([O-])c1ccc(NC2CC2)nc1Nc1ccc2[nH]ncc2c1 [Compound 34, 2-(1H-indazol-5-yl)amino-6-(cyclopropylamino)-3-nitropyridine] | 154 | 100 | – | 93 | – | – | –
17 | O=[N+]([O-])c1ccc(NN2CCOCC2)nc1Nc1ccc2cn[nH]c2c1 [Compound 24, 2-(1H-indazol-6-yl)amino-6-[(4-morpholin-1-yl)amino]-3-nitropyridine] | – | – | – | 110 | 107 % of Control | – | 86
18 | O=[N+]([O-])c1ccc(NCCCn2ccnc2)nc1Nc1ccc2cn[nH]c2c1 [Compound 49, 2-(1H-indazol-6-yl)amino-6-[(3-imidazol-1-yl)propylamino]-3-nitropyridine] | 129 | – | – | 95 | – | – | –
19 | CN(C)c1ccc([N+](=O)[O-])c(Nc2ccc3[nH]ncc3c2)n1 [Compound 25, 2-(1H-indazol-5-yl)amino-6-(N,N-dimethylamino)-3-nitropyridine] | 128 | 81 | – | 106 | – | – | –
20 | COCC(C)Nc1ccc([N+](=O)[O-])c(Nc2ccc3[nH]ncc3c2)n1 (centres unmarked) [Compound 22, 2-(1H-indazol-5-yl)amino-6-[(1-methyl-2-methoxy)ethylamino]-3-nitropyridine] | – | – | – | 99 | 119 % of Control | – | 100
